The source of these data is ChEMBL document CHEMBL6092219, “Structure-Based Design of Covalent SARS-CoV-2 Papain-like Protease Inhibitors” (J Med Chem, 2024).

Active and inactive are the calls of the source. The rule behind the calls is not given here.

The target of data set [1] is T1, Replicase polyprotein 1ab (Severe acute respiratory syndrome coronavirus 2, UniProt P0DTD1). In words: Inhibition of SARS-CoV-2 PL protease preincubated for 30 mins followed by substrate addition measured after 3 hrs.
A short description of data set [2]: (§1) Cytotoxicity against African green monkey Vero E6 cells incubated for 48 hrs by Neutral Red method. The class given is toxicity, cell-based, Vero C1008. To be noted: chlorocebus sabaeus, Vero E6 cells.
For data set [3], the system named is SARS-CoV-2. In words: microbe, parasite or virus in culture. Format: functional, organism-based, Vero E6. Particulars: Severe acute respiratory syndrome coronavirus 2, Vero C1008, 24 h.
Data set [4] is described as follows: Metabolic stability in mouse liver microsomes assessed as half life at 1 uM incubated for 60 mins by LC/MS/MS analysis. The class given is ADME, Microsome. To be noted: for half-life at 1 µM: liver microsomes. For orientation: Liver microsomes are a subcellular fraction often used to study metabolism.
In data set [5] the test system is SARS-CoV-2. In words: Antiviral activity against wild-type SARS-CoV-2 WA1 infected in human Caco-2 cells expressing hTMPRSS/hACE2 incubated for 48 hrs in presence of CP-100356 by crystal violet staining based analysis. The class given is functional, organism-based. To be noted: Severe acute respiratory syndrome coronavirus 2, WA1, Caco-2, 48 h.
Data set [6] relates to SARS-CoV-2. In words: Antiviral activity against SARS-CoV-2 XBB1.16 infected in human Caco-2 cells expressing hTMPRSS/hACE2 incubated for 48 hrs in presence of CP-100356 by crystal violet staining based analysis. Particulars: Severe acute respiratory syndrome coronavirus 2, XBB1.16, Caco-2, 48 h. Format: functional, organism-based.
The subject of data set [7] is SARS-CoV-2. In words: Antiviral activity against SARS-CoV-2 JN.1 infected in human Caco-2 cells expressing hTMPRSS/hACE2 incubated for 48 hrs in presence of CP-100356 by crystal violet staining based analysis. The class given is functional, organism-based. To be noted: Severe acute respiratory syndrome coronavirus 2, JN.1, Caco-2, 48 h.
The subject of data set [8] is SARS-CoV-2. In words: Selectivity ratio of EC50 for SARS-CoV-2 XBB1.16 infected in human Caco-2 cells expressing hTMPRSS/hACE2 to EC50 for wild-type SARS-CoV-2 WA1 infected in human Caco-2 cells expressing hTMPRSS/hACE2. Format: functional.
In data set [9] the test system is SARS-CoV-2. In words: Selectivity ratio of EC50 for SARS-CoV-2 JN.1 infected in human Caco-2 cells expressing hTMPRSS/hACE2 to EC50 for wild-type SARS-CoV-2 WA1 infected in human Caco-2 cells expressing hTMPRSS/hACE2. Format: functional.
In data set [10] the target is T1, Replicase polyprotein 1ab. In words: Inhibition of SARS-CoV-2 PL protease using Ub-AMC as substrate preincubated for 30 mins followed by substrate addition measured for 1 hr.
The target of data set [11] is T1, Replicase polyprotein 1ab. In words: Inhibition of SARS-CoV-2 PL protease using ISG15-AMC as substrate preincubated for 30 mins followed by substrate addition measured for 1 hr.
For data set [12], the target named is Ubiquitin carboxyl-terminal hydrolase 7 (Homo sapiens) (UniProt Q93009). In words: Inhibition of N-terminal polyhis/GST-tagged full-length human USP7 (1 to 1102 residues) expressed in baculovirus infected insect cells using Ub-AMC as substrate upto 100 uM. Particulars: Insect cell.
The target in data set [13] is Ubiquitin carboxyl-terminal hydrolase 14 (Homo sapiens) (UniProt P54578). In words: Inhibition of N-terminal 6His-tagged recombinant human USP14 (91 to 494 residues) expressed in Escherichia coli using Ub-AMC as substrate upto 100 uM.
A short description of data set [14]: AUClast in C57BL/6J mouse at 50 mg/kg, ip measured 5 hrs by LC/MS/MS analysis. To be noted: in vivo. Format: ADME, organism-based.
Data set [15] is described as follows: Cmax in C57BL/6J mouse at 50 mg/kg, ip measured 0.5 hrs by LC/MS/MS analysis. The class given is ADME, organism-based. Particulars: in vivo.
A short description of data set [16]: Cmax in C57BL/6J mouse at 50 mg/kg, po measured 5 hrs by LC/MS/MS analysis. The class given is ADME, organism-based. Particulars: in vivo.
Data set [17] concerns Vero C1008. Described as §1. Format: toxicity, cell-based. To be noted: chlorocebus sabaeus, vero c1008, 48 h.
For data set [18], the system named is SARS-CoV-2. In words: microbe, parasite or virus in culture. The class given is functional, organism-based. To be noted: Severe acute respiratory syndrome coronavirus 2, Caco-2, 24 h.

Ubiquitin carboxyl-terminal hydrolase 14 (Homo sapiens), sequence (P54578 whole entry, the tested form may be a part): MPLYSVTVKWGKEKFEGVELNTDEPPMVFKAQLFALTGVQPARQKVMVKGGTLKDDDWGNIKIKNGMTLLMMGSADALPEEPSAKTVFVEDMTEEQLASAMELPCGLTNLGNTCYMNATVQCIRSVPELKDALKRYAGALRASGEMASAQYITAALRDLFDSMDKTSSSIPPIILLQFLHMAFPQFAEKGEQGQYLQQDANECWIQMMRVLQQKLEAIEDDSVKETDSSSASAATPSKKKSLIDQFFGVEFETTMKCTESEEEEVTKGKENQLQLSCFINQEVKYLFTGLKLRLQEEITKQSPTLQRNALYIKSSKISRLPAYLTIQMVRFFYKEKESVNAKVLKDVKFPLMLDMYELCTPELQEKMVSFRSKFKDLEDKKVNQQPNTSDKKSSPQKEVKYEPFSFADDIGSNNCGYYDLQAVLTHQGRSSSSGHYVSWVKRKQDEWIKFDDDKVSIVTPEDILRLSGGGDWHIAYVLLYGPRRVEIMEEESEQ
Ubiquitin carboxyl-terminal hydrolase 7 (Homo sapiens), sequence (Q93009 whole entry, looked up, the tested form may be a part): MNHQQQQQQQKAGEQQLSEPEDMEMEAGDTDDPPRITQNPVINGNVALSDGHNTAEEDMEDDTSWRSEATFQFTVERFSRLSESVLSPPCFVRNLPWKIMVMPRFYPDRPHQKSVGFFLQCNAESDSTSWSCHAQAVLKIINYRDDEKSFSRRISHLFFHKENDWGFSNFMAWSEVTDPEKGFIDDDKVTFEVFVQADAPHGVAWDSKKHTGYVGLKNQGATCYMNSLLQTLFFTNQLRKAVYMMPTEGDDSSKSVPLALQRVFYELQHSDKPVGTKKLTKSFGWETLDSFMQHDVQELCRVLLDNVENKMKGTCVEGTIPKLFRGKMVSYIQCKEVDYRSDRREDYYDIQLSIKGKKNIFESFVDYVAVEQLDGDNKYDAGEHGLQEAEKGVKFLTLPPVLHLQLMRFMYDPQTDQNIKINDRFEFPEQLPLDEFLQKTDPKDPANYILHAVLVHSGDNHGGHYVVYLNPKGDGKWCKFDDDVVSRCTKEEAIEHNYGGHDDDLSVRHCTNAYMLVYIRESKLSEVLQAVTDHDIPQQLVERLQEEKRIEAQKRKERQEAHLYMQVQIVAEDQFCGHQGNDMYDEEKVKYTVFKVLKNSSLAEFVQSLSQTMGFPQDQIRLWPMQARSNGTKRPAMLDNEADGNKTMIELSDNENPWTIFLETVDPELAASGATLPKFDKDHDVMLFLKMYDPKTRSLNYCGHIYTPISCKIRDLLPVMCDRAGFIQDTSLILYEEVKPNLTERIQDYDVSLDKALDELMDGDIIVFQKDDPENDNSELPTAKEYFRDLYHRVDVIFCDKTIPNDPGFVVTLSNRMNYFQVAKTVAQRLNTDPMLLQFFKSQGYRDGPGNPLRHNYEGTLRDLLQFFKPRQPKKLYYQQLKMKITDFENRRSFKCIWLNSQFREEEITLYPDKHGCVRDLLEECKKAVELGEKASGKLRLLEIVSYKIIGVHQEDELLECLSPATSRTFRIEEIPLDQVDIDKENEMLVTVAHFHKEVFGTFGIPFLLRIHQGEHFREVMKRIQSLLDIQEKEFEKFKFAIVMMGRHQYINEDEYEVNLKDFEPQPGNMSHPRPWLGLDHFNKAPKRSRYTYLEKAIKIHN

In general, IC50 refers to the concentration at which inhibition is half-maximal. A word on the CC50: it is the concentration at which the toxic effect on the cells reaches its halfway point. As usually defined, the EC50 is the concentration needed to bring the measured effect to its halfway point. By half-life is commonly meant how long it takes for the measured level to halve. Regarding `CCn1ccc(-c2cc(-c3cnn(C)c3)cc([C@@H](C)NC(=O)c3ccccc3CCC(=O)NNC(=O)/C=C/C(=O)NC3CC(F)(F)C3)c2)n1`, the midpoint of inhibition in data set [1], the IC50, lay at 200 nM. In addition, the CC50 at 48 h in [2] was > 250000 nM. A half-maximal effect in [3] (EC50) was put at 2400 nM. The half-life at 1 µM in [4] was 1.31 h.

Consider `C=CC(=O)NNC(=O)CCc1ccccc1C(=O)N[C@H](C)c1cc(-c2cnn(C)c2)cc(-c2ccn(CC)n2)c1`, for which half-maximal inhibition in data set [1] (IC50) required 3100 nM. Besides, the CC50 at 48 h in [2] was > 250000 nM.

Turning to `C#CCNC(=O)CCc1ccccc1C(=O)N[C@H](C)c1cc(-c2cnn(C)c2)cc(-c2ccn(CC)n2)c1`, the IC50 in [1] is 5000 nM. Further, it took 256000 nM to reach half-maximal cytotoxicity in data set [2] (CC50 at 48 h).

For `CC(C)(C)[C@H](NC(=O)C(F)(F)F)C(=O)N1C[C@H]2[C@@H]([C@H]1C(=O)N[C@H](C#N)C[C@@H]1CCNC1=O)C2(C)C`, the results for the EC50 in data set [5], in data set [6] and in data set [7] were 33.9 nM, 37.1 nM and 96 nM, respectively. For the same molecule, the “Ratio EC50” value worked out at 1.1 in data set [8] and 2.8 in [9].

What is called Ki is the dissociation constant of the complex between target and ligand, obtained from inhibition or displacement. Regarding `CCn1ccc(-c2cc(-c3cnn(C)c3)cc([C@@H](C)NC(=O)c3ccccc3CCC(=O)NNC(=O)/C=C/C(=O)N3CC(F)(F)C3)c2)n1`, half-maximal inhibition in data set [1] (IC50) was put at 100 nM. The molecule also showed an EC50 in [3] of 185 nM. Also, the Ki in data set [10] turned out to be 0.25 nM; in data set [11], 1.36 nM. Besides, the inhibition entry in data set [12] and in data set [13] was “inactive” in each case.

Usually Cmax stands for the highest concentration seen after dosing. For `CCn1ccc(-c2cc(-c3cnn(C)c3)cc([C@@H](C)NC(=O)c3ccccc3CCC(=O)NNC(=O)/C=C/C(=O)N3CC(C)(C)C3)c2)n1`, in data set [2], the CC50 at 48 h is > 250000 nM. In data set [4], the half-life at 1 µM was found to be 1.4 h. Besides, the AUClast in data set [14] was determined as 2513 ng·h/mL. In addition, the Cmax in data set [15] was 995 ng/mL; in data set [16], < 10 ng/mL.

`CCn1ccc(-c2cc(-c3cnn(C)c3)cc([C@@H](C)NC(=O)c3ccccc3CCC(=O)NNC(=O)/C=C/C(=O)N3CC(C(F)(F)F)C3)c2)n1` came in with an IC50 in data set [1] of 100 nM.

With `CCn1ccc(-c2cc(-c3cnn(C)c3)cc([C@@H](C)NC(=O)c3ccccc3CNC(=O)CNC(=O)/C=C/C(=O)N3CC(F)(F)C3)c2)n1`, in data set [1], half-maximal inhibition (IC50) required 500 nM. Further, the CC50 at 48 h in data set [2] was > 250000 nM.

In data set [1], `C=CS(=O)(=O)NNC(=O)CCc1ccccc1C(=O)N[C@H](C)c1cc(-c2cnn(C)c2)cc(-c2ccn(CC)n2)c1` registered an IC50 of 300 nM. Further, in data set [17], half-maximal cytotoxicity (CC50) was put at 31000 nM.

The molecule `CCn1ccc(-c2cc(-c3cnn(C)c3)cc([C@@H](C)NC(=O)c3ccccc3CCC(=O)NNC(=O)CCl)c2)n1` came in with an IC50 in data set [1] of 300 nM. Further, in data set [17], the CC50 is > 250000 nM.

As for `CCn1ccc(-c2cc(-c3cnn(C)c3)cc([C@@H](C)NC(=O)c3ccccc3CCC(=O)NNC(=O)/C=C/C(=O)N3CCC3)c2)n1`, it took 100 nM to reach half-maximal inhibition in [1] (IC50). Besides, in data set [2], the cytotoxic concentration (CC50) at 48 h is > 250000 nM. For the same molecule, the EC50 in data set [3] came to 3200 nM. Further, the t1/2 in data set [4] (microsomes, 1 h, 1 µM) was > 2.42 h. The Cmax in [16] is < 10 ng/mL.

For `CCn1ccc(-c2cc(-c3cnn(C)c3)cc([C@@H](C)NC(=O)c3ccccc3CCC(=O)NNC(=O)C34CC(C3)C4)c2)n1`, the CC50 at 48 h in data set [2] was > 250000 nM.

Molecule `CCn1ccc(-c2cc(-c3cnn(C)c3)cc(C3(NC(=O)c4ccccc4CNC(=O)CNC(=O)/C=C/C(=O)N4CC(F)(F)C4)CC3)c2)n1` came in with an IC50 in [1] of 1600 nM. Moreover, in data set [2], the CC50 at 48 h is > 250000 nM.

Molecule `CCn1ccc(-c2cc(-c3cnn(C)c3)cc([C@@H](C)NC(=O)c3ccccc3CCC(=O)NNC(=O)/C=C/C(=O)NC3CC3)c2)n1` gave an IC50 in data set [1] of 200 nM. The CC50 at 48 h in [2] is > 250000 nM. This molecule also displayed an EC50 in data set [3] of 5200 nM. Further, in [4], the half-life at 1 µM was > 2.42 h.

In the case of `CCn1ccc(-c2cc(-c3cnn(C)c3)cc([C@@H](C)NC(=O)c3ccccc3CCC(=O)NNC(C)=O)c2)n1`, the CC50 at 48 h in data set [2] was > 250000 nM.

In the case of `CCn1ccc(-c2cc(-c3cnn(C)c3)cc([C@@H](C)NC(=O)c3ccccc3CCC(=O)NNC(=O)/C=C/C(=O)NC34CC(C3)C4)c2)n1`, half-maximal inhibition in data set [1] (IC50) required 100 nM. Moreover, the CC50 at 48 h in [2] was > 250000 nM. The same molecule displayed an EC50 in data set [3] of 6130 nM.

`CCn1ccc(-c2cc(-c3cnn(C)c3)cc([C@@H](C)NC(=O)c3ccccc3CCC(=O)NNC(=O)C(Cl)Cl)c2)n1` came in with an IC50 in data set [1] of 2200 nM. In data set [2], the CC50 at 48 h is > 250000 nM.

In the case of `CCn1ccc(-c2cc(-c3cnn(C)c3)cc([C@@H](C)NC(=O)c3ccccc3CCC(=O)NNC(=O)/C=C/C(=O)N3CC(F)C3)c2)n1`, in [1], it took 100 nM to reach half-maximal inhibition (IC50). Further, the CC50 at 48 h in data set [2] is > 250000 nM. Further, the EC50 in data set [3] was determined as 935 nM. The half-life at 1 µM in data set [4] is 1.3 h.

On to `CCn1ccc(-c2cc(-c3cnn(C)c3)cc([C@@H](C)NC(=O)c3ccccc3CCC(=O)NCCC#N)c2)n1`, for which the IC50 in data set [1] is > 10000 nM. The molecule also yielded a CC50 at 48 h in data set [2] of 146000 nM.

Regarding `CCn1ccc(-c2cc(-c3cnn(C)c3)cc([C@@H](C)NC(=O)c3ccccc3CCC(=O)NCC(=O)CF)c2)n1`, in data set [2], the CC50 at 48 h is > 250000 nM.

In data set [18], `CCn1ccc(-c2cc(-c3cnn(C)c3)cc([C@@H](C)NC(=O)c3cc(OCCN(C)C)ccc3C)c2)n1` registered an EC50 of 420 nM.

For the molecule `CCn1ccc(-c2cc(-c3cnn(C)c3)cc([C@@H](C)NC(=O)c3ccccc3CCC(=O)NNC(=O)/C=C/CN(C)C)c2)n1`, in data set [1], the IC50 is > 5000 nM. Besides, the CC50 at 48 h in [2] was > 250000 nM.

In the case of `CCn1ccc(-c2cc(-c3cnn(C)c3)cc([C@@H](C)NC(=O)c3ccccc3CCC(=O)NNC(=O)/C=C/C(=O)OC(C)(C)C)c2)n1`, in data set [1], the IC50 came to 100 nM. In data set [3], this molecule showed an EC50 of 99.2 nM.

Regarding `CCn1ccc(-c2cc(-c3cnn(C)c3)cc([C@@H](C)NC(=O)c3ccccc3CCC(=O)NNC(=O)/C=C/C(=O)N(C)C)c2)n1`, the IC50 in [1] was 700 nM. Moreover, the CC50 at 48 h in [2] is > 250000 nM.

In [1], `CCOC(=O)/C=C/C(=O)NNC(=O)CCc1ccccc1C(=O)N[C@H](C)c1cc(-c2cnn(C)c2)cc(-c2ccn(CC)n2)c1` registered an IC50 of 100 nM.

The molecule `CCOC(=O)/C=C/C(=O)NCC(=O)NCc1ccccc1C(=O)NC1(c2cc(-c3cnn(C)c3)cc(-c3ccn(CC)n3)c2)CC1` registered an IC50 in [1] of 1100 nM. In addition, in data set [2], the CC50 at 48 h was > 250000 nM.
